The results in this text go back to PubChem BioAssay AID2694 (The Scripps Research Institute Molecular Screening Center, 2010).

This assay has as its target Mucolipin-3 (Homo sapiens) (UniProt Q8TDD5). Put plainly: whole-cell currents from mucolipin-3 agonists – HEK293, whole-cell patch clamp, -80 mV, orthogonal assay, late-stage follow-up (AID 2694). The conditions noted are these: HEK293 TRPML3, whole-cell patch clamp current; at 10 µM; active compounds read low.

Mucolipin-3 (Homo sapiens), sequence (Q8TDD5 whole entry, looked up): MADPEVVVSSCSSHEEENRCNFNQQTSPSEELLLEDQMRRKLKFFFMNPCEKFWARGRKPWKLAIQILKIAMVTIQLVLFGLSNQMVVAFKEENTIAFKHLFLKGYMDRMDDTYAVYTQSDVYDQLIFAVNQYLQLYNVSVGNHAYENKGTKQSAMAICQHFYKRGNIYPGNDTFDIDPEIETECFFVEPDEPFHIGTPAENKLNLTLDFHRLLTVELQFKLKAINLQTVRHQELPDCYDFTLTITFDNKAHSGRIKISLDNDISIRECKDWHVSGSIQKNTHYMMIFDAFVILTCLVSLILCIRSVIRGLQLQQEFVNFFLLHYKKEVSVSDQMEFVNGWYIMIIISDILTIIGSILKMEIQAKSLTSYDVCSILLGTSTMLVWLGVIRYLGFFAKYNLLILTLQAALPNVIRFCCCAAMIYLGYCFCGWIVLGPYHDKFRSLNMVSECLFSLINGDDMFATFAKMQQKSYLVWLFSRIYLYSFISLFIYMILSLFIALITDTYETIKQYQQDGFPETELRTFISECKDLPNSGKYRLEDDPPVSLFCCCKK

Consider `CCOc1ccc(S(=O)(=O)N2CCCCCC2)c2ccccc12`, for which the current density at -80 mV was -0.19 nA/pF.
The value for `CC1CCN(S(=O)(=O)c2ccc(C(C)C)cc2)CC1` was -0.02 nA/pF; that for `Cc1ccc(S(=O)(=O)n2nccc2-c2c(-c3ccc(Cl)cc3)noc2C)cc1` was -0.14 nA/pF.
